The record followed here is PubChem BioAssay AID1259420 (Broad Institute, 2018).

Values joined by “and” are separate entries in the source; they are usually repeats but may differ in a detail not shown here. Equal entries are not always repeated. Results filed as inconclusive are left out. Active and inactive are the calls of the source. The rule behind the calls is not given here.

In the assay the test system is Toxoplasma gondii growth in host cells, no IFN-gamma. Put plainly: compound activity on host-cell Toxoplasma growth – dose response (AID 1259420).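 Note: host cells were HeLa; final incubation lasted 72 hours.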

Usually AC50 stands for the concentration at which the activity in the assay is half-maximal. Regarding `COc1ccccc1S(=O)(=O)N1CC[C@@H]2[C@@H](CO)Nc3ccc(-c4ccc(C#N)cc4)cc3[C@@H]21`, the AC50 was 19.8 µM.
Regarding `CCc1cnc(N2[C@H](C#N)[C@H](c3ccc(C#Cc4ccccc4F)cc3)[C@@H]2CO)s1`, the concentration at half-maximal activity (AC50) was 11.3 µM.
As for `Cc1nc2ccccn2c1CN(C)Cc1cnn(-c2ccccc2)c1`, the figure is 12.2 µM; as for `CC(C)C#Cc1ccc([C@H]2[C@@H](C#N)N(C(=O)c3cccc(F)c3)[C@H]2CO)cc1`, 26.4 µM.
As for `CC(C)CNC(=O)c1nc2c(s1)CCN(C(=O)NCc1ccccc1)CC2`, the figure is 18.3 µM.
Take `O=C1c2c(O)ccc(O)c2C(=O)c2c(NCCNCCO)ccc(NCCNCCO)c21`: the concentration at half-maximal activity (AC50) is 0.209 µM.
As to `COc1cccc(-c2ccc3c(c2)[C@@H]2[C@@H](CCN2S(=O)(=O)c2ccccc2F)[C@H](CO)N3)c1`, the half-maximal activity concentration (AC50) was 10.9 µM.
As for `COc1cccc(S(=O)(=O)N2CCCCN3[C@@H](CO)[C@H](c4ccc(C#CCC(C)C)cc4)[C@@H]3C2)c1`, the figure is 21.4 µM and 16.4 µM and 30.4 µM; as for `C[C@H](O[C@H]1OCCN(Cc2n[nH]c(=O)[nH]2)[C@H]1c1ccc(F)cc1)c1cc(C(F)(F)F)cc(C(F)(F)F)c1`, 21.5 µM.
As for `CN1c2ccc(-c3ccccc3)cc2[C@H]2[C@H](CCN2C(=O)CC2CC2)[C@@H]1CO`, the figure is 25.4 µM; as for `Cc1cc(C)cc(S(=O)(=O)N2CCC3(CC2)NCCN=C3NCc2ccc(C(F)(F)F)cc2)c1`, 18.7 µM.
In the case of `O=C(CCCCCCNC(=O)c1cnc(N(c2ccccc2)c2ccccc2)nc1)NO` it was 14.8 µM; in that of `COc1ccccc1-c1ccc2c(c1)[C@H]1[C@H](CCN1C(=O)C1CCC1)[C@H](CO)N2`, 13 µM.
On to `CCCNC(=O)N1CC(=O)N2[C@@H](CO)[C@@H](c3ccc(C#Cc4cccc(OC)c4)cc3)[C@@H]2C1`, for which the AC50 was 31.2 µM.
As for `O=C(Nc1ccc(F)cc1)N1C[C@@H]2N[C@H](C1)C2c1ccc(/C=C/c2ccccc2)cc1` (stereo partly drawn), the figure is 9.87 µM; as for `COCC1CN(C(=O)Cc2ccsc2)Cc2nccn2C1` (stereo not drawn), 28.3 µM.
As for `O=C(O)CC1CCC(c2ccc(-c3ccc(Nc4ccc(C(F)(F)F)nc4)cn3)cc2)CC1` (stereo not drawn), the half-maximal activity concentration (AC50) was 17.2 µM.
As for `Cc1cccc(OCC(=O)N2CCC3(CC2)Nc2ccc(Cl)cc2-n2cccc23)c1`, the figure is 13.7 µM; as for `COc1ccc(NC(=O)N2CCCCN3[C@H](CO)[C@@H](c4ccc(-c5ccccc5F)cc4)[C@H]3C2)cc1`, 19.7 µM; as for `Cc1ccccc1CN1C[C@@H]2c3nc(N4CCCC(C)C4)ncc3CS(=O)(=O)[C@H]2C1` (stereo partly drawn), 28.2 µM.
As for `COc1ccccc1-c1ccc2c(c1)[C@@H]1[C@@H](CCN1S(=O)(=O)c1ccc(C)cc1)[C@H](CO)N2`, the figure is 12.4 µM.
As for `COc1cccc(-c2ccc3c(c2)[C@H]2[C@H](CCN2S(=O)(=O)c2ccccc2F)[C@@H](CO)N3)c1`, the figure is 11.5 µM and 6.32 µM; as for `O=C(CCCCCNc1nc(=S)[nH]c2ccccc12)N1CCC(O)(c2cccc(C(F)(F)F)c2)CC1`, > 39 µM (inactive).
Take `O=C(Cc1ccccc1)N1CC[C@H]2[C@H](CO)Nc3ccc(C4=CCCCC4)cc3[C@H]21`: the AC50 was 13.9 µM.
On to `O=C(CC1CC1)N1CC[C@@H]2[C@@H](CO)Nc3ccc(-c4ccc(F)cc4)cc3[C@@H]21`, for which the concentration at half-maximal activity (AC50) was 20.2 µM.
`O=C(Nc1ccc(Cl)cc1)N1[C@@H]2CNC[C@H]1C2c1ccc(-c2ccccc2)cc1` (stereo partly drawn): the AC50 was 6.4 µM.
As for `Cc1cccc(-c2ccc([C@H]3[C@@H](CO)N4CCCCN(S(=O)(=O)c5ccccc5F)C[C@H]34)cc2)c1`, the figure is 16.4 µM and 19.5 µM; as for `Cc1sc2ncnc(NCC3CCN(c4cnn(C)c(=O)c4)C3)c2c1C` (stereo not drawn), 29.6 µM; as for `COc1ccc(-c2ccc3c(c2)[C@@H]2[C@@H](CCN2C(=O)c2cccc(F)c2)[C@H](CO)N3)cc1`, 11.3 µM.
In the case of `CCc1ccccc1S(=O)(=O)N1CCc2nc(-c3ccccc3)sc2C1` it was 3.94 µM and 3.08 µM; in that of `O=C(CC1CC1)N1CC[C@@H]2[C@H]1c1cc(-c3ccc(F)cc3)ccc1N[C@@H]2CO`, 16.3 µM; in that of `CC(=O)NC1=NN(C(C)=O)C(C)(c2ccccc2)S1` (stereo not drawn), > 20 µM (inactive).
On to `CN(C)C(=O)COC[C@@H]1CC[C@H]2[C@H](CCN2CC2CC2)O1`, for which the AC50 is > 39 µM (inactive).
As for `COc1ccc(S(=O)(=O)N2CCCCN3[C@H](CO)[C@H](c4ccc(C#CCC(C)C)cc4)[C@H]3C2)cc1`, the figure is 8.14 µM and 12.7 µM; as for `CC(C)(C)OC(=O)Nc1cc(-c2cn[nH]c2C2CCCN(C(=O)OC(C)(C)C)C2)ccn1` (stereo not drawn), > 20 µM (inactive); as for `CC(C)NC(=O)N1CCC2(CC1)OCCN(CCO)c1ccccc12`, > 39 µM (inactive).
On to `COCCN1C(=O)CCC12CCC(NC(=O)c1cc(C)on1)CC2` (stereo not drawn), for which the AC50 is > 39 µM (inactive).
As for `COc1ccccc1-c1ccc(C2[C@@H]3CN(S(=O)(=O)c4ccc(C)cc4)C[C@H]2N3)cc1` (stereo partly drawn), the figure is 15.2 µM and > 20 µM (inactive).
In the case of `CCN(CC)CCO[C@H]1CC[C@@]2(C)C(=CC[C@@H]3[C@@H]2CC[C@]2(C)C(=O)CC[C@@H]32)C1` it was > 39 µM (inactive).
In the case of `CC(C)CC#Cc1ccc([C@H]2[C@@H](CO)N3CCCCN(C(=O)Nc4ccccc4)C[C@@H]23)cc1` it was 15.5 µM; in that of `O=C(Nc1cccc(F)c1)N1CCCCN2[C@H](CO)[C@H](c3ccc(C#Cc4cccnc4)cc3)[C@@H]2C1`, 1.34 µM and 2.47 µM; in that of `COc1ccc(-c2nc(Nc3ccc(CN4CCC(C)CC4)cc3)c3ccccc3n2)cc1`, 12.6 µM.
Regarding `CCCC#Cc1ccc([C@@H]2[C@H]3CN(C(=O)Nc4cccc(F)c4)CC(=O)N3[C@H]2CO)cc1`, the AC50 was 29.4 µM and 14.9 µM.
In the case of `C[C@H]1CN([C@@H](C)CO)C(=O)c2cccc(NS(=O)(=O)c3ccc(F)cc3)c2O[C@H]1CN(C)Cc1ccc(Cl)c(Cl)c1` it was 17.6 µM.
As for `Cc1ccc(N2CCC3(CC2)CN(CC#N)Cc2ccccc23)nn1`, the figure is > 39 µM (inactive); as for `CC(C)N1CCN(CC#N)C2(CCN(C(=O)c3ccc[nH]3)C2)C1=O` (stereo not drawn), 37.9 µM.
In the case of `C/C=C/c1ccc([C@H]2[C@H](CO)N3CCCCN(S(=O)(=O)c4ccc(OC)cc4)C[C@@H]23)cc1` it was 19.1 µM; in that of `CCOc1ccc(N(Cc2nc(-c3ccc(OC)cc3)oc2C)S(=O)(=O)c2ccccc2)cc1`, 7.28 µM; in that of `COc1ccc(-c2ccc3c(c2)[C@H]2[C@H](CCN2C(=O)c2cccc(F)c2)[C@@H](CO)N3)cc1`, 10.6 µM.
Consider `CO[C@H]1CCN(Cc2ccoc2)[C@H]2CN(Cc3ccncc3)C[C@@H]12`, for which the AC50 was > 39 µM (inactive).
As for `c1csc(-c2cc(NC3CCNCC3)nc3[nH]ccc23)n1`, the figure is 37 µM; as for `Cc1cccc(-c2ccc([C@@H]3[C@H](CO)N4CCCCN(S(=O)(=O)c5ccccc5F)C[C@@H]34)cc2)c1`, 19.7 µM; as for `CC(=O)O.CC(=O)O.[Cl][Pt+2][Cl].[NH-]C1CCCCC1.[NH2-]`, 19.4 µM.
`COc1ccc(-c2ccc3c(c2)[C@H]2[C@H](CCN2C(=O)c2cccc(F)c2)[C@H](CO)N3)cc1`: the half-maximal activity concentration (AC50) was 14.3 µM.
In the case of `CCc1c2c(nc3ccc(OC(=O)N4CCC(N5CCCCC5)CC4)cc13)-c1cc3c(c(=O)n1C2)COC(=O)[C@]3(O)CC` it was 24.7 µM; in that of `COc1ccc(S(=O)(=O)N2CCCCN3[C@H](CO)[C@@H](c4ccc(C#CCC(C)C)cc4)[C@H]3C2)cc1`, 12.8 µM and 7.95 µM.
On to `CCc1ccccc1S(=O)(=O)N1CCc2nc(-c3ccc(OC)cc3)sc2C1`, for which the AC50 was 4.35 µM.
As for `COc1ccc(C#Cc2ccc([C@@H]3[C@@H](CO)N4C(=O)CN(C(=O)NC(C)C)C[C@@H]34)cc2)cc1`, the figure is > 39 µM (inactive); as for `O=C(NC1CCCC1)N1CC[C@H]2CN(Cc3ccc(Cl)cc3)S(=O)(=O)[C@@H]2CC1`, 28.5 µM; as for `CN1c2ccc(C3=CCCCC3)cc2[C@@H]2[C@@H](CCN2C(=O)c2ccc3c(c2)OCO3)[C@@H]1CO`, 27.5 µM.
Turning to `Cc1ccccc1S(=O)(=O)N1CCCCN2[C@H](CO)[C@H](c3ccc(C#CCN(C)C)cc3)[C@H]2C1`, the concentration at half-maximal activity (AC50) was 33.7 µM.
In the case of `O=C(Nc1ccc(F)cc1)N1CC(=O)N2[C@H](C1)[C@@H](c1ccc(-c3cccc(F)c3)cc1)[C@@H]2CO` it was 29.4 µM and 15.6 µM; in that of `Cc1cc(C(=O)Nc2ccc3c(c2)C(=O)N(C)[C@@H]2CC[C@@H](CC(=O)NCc4ccc(-c5ccccc5)cc4)O[C@@H]2CO3)no1`, 17.9 µM.
As for `CCc1cnc(N2[C@H](C#N)[C@H](c3ccc(-c4cccc(F)c4)cc3)[C@H]2CO)s1`, the figure is 22.6 µM; as for `O=C(C[C@@H]1CC[C@H]2[C@@H](COC[C@@H](O)CN2Cc2cc(F)ccc2F)O1)NCc1ccc(Oc2ccccc2)cc1`, 16.9 µM.
As to `N#Cc1ccc(-c2ccc3c(c2)[C@@H]2[C@@H](CCN2C(=O)C2CCCCC2)[C@H](CO)N3)cc1`, the AC50 was 18 µM.
In the case of `C=CCNc1nnc(Cl)c2ccccc12` it was 17.8 µM; in that of `O=C(Nc1cccc(F)c1)N1CCCCN2[C@H](CO)[C@@H](c3ccc(C#Cc4cccnc4)cc3)[C@H]2C1`, 23.6 µM.
As for `O=S(=O)(c1ccccc1F)N1CC[C@H]2[C@H](CO)Nc3ccc(C4=CCCCC4)cc3[C@H]21`, the figure is 12.4 µM; as for `COc1cc([C@@H]2c3cc4c(cc3C(OC3OC5COC(C)OC5C(O)C3O)C3OCC(=O)[C@@H]32)OCO4)cc(OC)c1O` (stereo partly drawn), 13.7 µM.
In the case of `COc1cc(CN2C[C@@H]3N[C@H](C2)C3c2ccc(-c3ccc(C#N)cc3)cc2)cc(OC)c1` (stereo partly drawn) it was 7.99 µM; in that of `Cc1ccc(S(=O)(=O)N2CC[C@@H]3[C@@H](CO)Nc4ccc(-c5cccc(C(=O)N(C)C)c5)cc4[C@@H]32)cc1`, 13.8 µM; in that of `CN(C)Cc1noc2c1CN(Cc1nccn1C)CC2`, > 39 µM (inactive).
In the case of `CC(C)CC#Cc1ccc([C@@H]2[C@@H](CO)N3CCCCN(C(=O)Nc4ccccc4)C[C@H]23)cc1`, the half-maximal activity concentration (AC50) was 15.9 µM.
`c1cnc(N2CCC(Oc3cnccn3)CC2)nc1`: the AC50 was 15.6 µM.
In the case of `Cc1ccc(S(=O)(=O)N2CC[C@@H]3[C@H]2c2cc(-c4cccc(C(=O)N(C)C)c4)ccc2N[C@@H]3CO)cc1` it was 30.1 µM; in that of `Cc1cccc(-c2ccc(C3[C@@H]4CN(Cc5cccc(F)c5)C[C@H]3N4)cc2)c1` (stereo partly drawn), 19.4 µM; in that of `CN(C)C(=O)c1ccc(-c2ccc3c(c2)[C@@H]2[C@@H](CCN2C(=O)C2CCCC2)[C@@H](CO)N3C)cc1`, 17.5 µM.
